Measured values reported in US20070010489A1 (priority 2002, published 2007).

Tests used:
[1] = system: PBMC in human whole blood
[2] = system: Recombinant HIV-1 Strains With Resistance Mutations in the Protease Gene; experiment: Cross-Resistance Profile Assay, whole panel; type: cell-based; settings: resistance = 5-fold and higher change in EC50 vs wild type; 11 mutant viruses
[3] = system: recombinant HIV-1 10I/48V/71V/82A/90M; experiment: microbe, parasite or virus in culture; type: cell-based; settings: Human immunodeficiency virus 1, read-out: Cell-based assay (MT-4) EC50/nM 48V82A90M
[4] = system: recombinant HIV-1 46I/47V/50V; experiment: microbe, parasite or virus in culture; type: cell-based; settings: Human immunodeficiency virus 1, read-out: Cell-based assay (MT-4) EC50/nM 46I50V
[5] = system: recombinant HIV-1 48V/54V/71V/82S; experiment: microbe, parasite or virus in culture; type: cell-based; settings: Human immunodeficiency virus 1, read-out: Cell-based assay (MT-4) EC50/nM 48V54V82S
[6] = system: mutant HIV-1 with I84V/L90M mutations; experiment: microbe, parasite or virus in culture; type: cell-based; settings: Human immunodeficiency virus 1, read-out: Cell-based assay (MT-4) EC50/nM 84V90M
WT HIV-1 = experiment: microbe, parasite or virus in culture; settings: Human immunodeficiency virus 1, read-out: Cell-based assay (MT-4) EC50/nM WT
[7] = system: recombinant HIV-1 30N/50S/82I/88D; experiment: microbe, parasite or virus in culture; type: cell-based; settings: Human immunodeficiency virus 1, read-out: Cell-based assay (MT-4) EC50/nM 30N82I88D
[8] = system: recombinant HIV-1 10I/48V/54V/82A; experiment: microbe, parasite or virus in culture; type: cell-based; settings: Human immunodeficiency virus 1, read-out: Cell-based assay (MT-4) EC50/nM 48V54V82A
84V90M = 84V90M (Human immunodeficiency virus type 1 group M subtype B, UniProt P04585, I572V/L578M); experiment: biochemical; type: biochemical, HIV; settings: Enzymatic assay

In the case of `CCOC(=O)C(C)NP(=O)(COc1ccc(CC(NC(=O)OC2COC3OCCC23)C(O)CN(CC(C)C)S(=O)(=O)c2ccc(OC)cc2)cc1)Oc1ccccc1` (stereo not shown) [GS-16571], the “Major Intracellular Metabolites” value [1] is reported as “X,GS-8373” and the “Total No. of Resistant Viruses” value [2] is reported as 0.
`CCOP(=O)(CCNC(=O)Oc1ccc(CC2C(O)C(O)C(Cc3ccc(OC)cc3)N(Cc3cccc(N)c3)C(=O)N2Cc2cccc(N)c2)cc1)OCC` (stereo not shown) [OCH3, Ph-mNH2, OCONH(CH2)2PO3Et2] showed an EC50 [3] of 215 nM, an EC50 [4] of 184 nM and an EC50 [5] of 214 nM. For the same compound, the EC50 [6] was 2260 nM, the EC50 (WT HIV-1) was 74 nM and the EC50 [7] was 77 nM. The EC50 [8] was 262 nM and the IC50 (84V90M) was 116 nM.
